Test results published in ChEMBL document CHEMBL5380843 (J Med Chem, 2023).

Legend:
[1] = Acute toxicity in 12 hr fasted female CD-1 (ICR) mouse assessed as death at 2 g/Kg, IG measured after 14 days; settings: in vivo, po, 2000 mg/kg, 336 h, time 14 day
[2] = Oral bioavailability in Sprague-Dawley rat at 10 mg/kg measured upto 24 hrs by LC-MS/MS analysis; assay type: ADME, organism-based; settings: in vivo
[3] = Resistant factor, ratio of EC50 for antiviral activity against HIV-1 IIIB harboring reverse transcriptase Y181C mutant to EC50 for antiviral activity against wild type HIV-1 IIIB; assay type: functional
[4] = AUC (0 to infinity) in Sprague-Dawley rat at 10 mg/kg, po measured upto 24 hrs by LC-MS/MS analysis; assay type: ADME, organism-based; parameters: dose 10 mg/kg, time < 24 hrs, route po; settings: in vivo
[5] = MRT (0 to t) in Sprague-Dawley rat at 1 mg/kg, iv measured upto 24 hrs by LC-MS/MS analysis; assay type: ADME, organism-based; settings: in vivo
[6] = test system: Human immunodeficiency virus 1; experiment: Antiviral activity against wild type HIV-1 IIIB harboring reverse transcriptase Y181C mutant infected in human MT4 cells assessed as protection against virus-induced cytopathic effect incubated for 5 days by MTT assay; assay type: functional, organism-based; settings: Human immunodeficiency virus 1, IIIB, MT4, 120 h
[7] = MRT (0 to infinity) in Sprague-Dawley rat at 10 mg/kg, po measured upto 24 hrs by LC-MS/MS analysis; assay type: ADME, organism-based; settings: in vivo
[8] = test system: Human immunodeficiency virus 1; experiment: Antiviral activity against wild type HIV-1 IIIB harboring reverse transcriptase […] mutant infected in human MT4 cells assessed as protection against virus-induced cytopathic effect incubated for 5 days by MTT assay; assay type: functional, organism-based; settings: Human immunodeficiency virus 1, IIIB, MT4, 120 h
[9] = Acute toxicity in 12 hr fasted female CD-1(ICR) mouse assessed as pathological damage in heart at 2 g/Kg, IG measured after 14 days by H and E staining based analysis; assay type: tissue-based; settings: in vivo, po, 2000 mg/kg, 336 h, time 14 day
[10] = Acute toxicity in 12 hr fasted female CD-1(ICR) mouse assessed as pathological damage in spleen at 2 g/Kg, IG measured after 14 days by H and E staining based analysis; assay type: tissue-based; settings: in vivo, po, 2000 mg/kg, 336 h, time 14 day
Cytochrome P450 1A2 = target: T1, Cytochrome P450 1A2 (Homo sapiens, UniProt P05177); experiment: Inhibition of CYP1A2 in human liver microsomes using phenacetin as substrate incubated for 15 to 45 mins in presence of NADPH; assay type: ADME, Microsome
T1 sequence (P05177 whole entry): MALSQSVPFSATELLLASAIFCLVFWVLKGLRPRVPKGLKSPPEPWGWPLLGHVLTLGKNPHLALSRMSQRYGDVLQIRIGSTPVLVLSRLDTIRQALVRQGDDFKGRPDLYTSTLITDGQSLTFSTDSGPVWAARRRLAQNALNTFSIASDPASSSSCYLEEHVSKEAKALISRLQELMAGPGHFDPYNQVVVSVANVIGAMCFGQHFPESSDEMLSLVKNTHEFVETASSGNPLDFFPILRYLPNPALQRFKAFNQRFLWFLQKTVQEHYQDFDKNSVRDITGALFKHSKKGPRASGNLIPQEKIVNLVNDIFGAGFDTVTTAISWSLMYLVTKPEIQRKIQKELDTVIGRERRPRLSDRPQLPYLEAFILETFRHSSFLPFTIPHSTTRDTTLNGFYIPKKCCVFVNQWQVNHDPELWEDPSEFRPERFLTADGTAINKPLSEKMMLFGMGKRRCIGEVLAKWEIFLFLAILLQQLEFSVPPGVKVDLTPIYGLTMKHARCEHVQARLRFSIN

[11] = MRT (0 to infinity) in Sprague-Dawley rat at 1 mg/kg, iv measured upto 24 hrs by LC-MS/MS analysis; assay type: ADME, organism-based; settings: in vivo
[12] = AUC (0 to infinity) in Sprague-Dawley rat at 1 mg/kg, iv measured upto 24 hrs by LC-MS/MS analysis; assay type: ADME, organism-based; parameters: time < 24 hrs, dose 1 mg/kg, route iv; settings: in vivo
[13] = Acute toxicity in 12 hr fasted female CD-1(ICR) mouse assessed as behavioral abnormalities at 2 g/Kg, IG measured after 14 days; settings: in vivo, po, 2000 mg/kg, 336 h, time 14 day
[14] = Tmax in Sprague-Dawley rat at 10 mg/kg, po measured upto 24 hrs by LC-MS/MS analysis; assay type: ADME, organism-based; settings: in vivo
[15] = Acute toxicity in 12 hr fasted male CD-1(ICR) mouse assessed as pathological damage in brain at 2 g/Kg, IG measured after 14 days by H and E staining based analysis; assay type: tissue-based; settings: in vivo, po, 2000 mg/kg, 336 h, time 14 day
Cytochrome P450 2C19 = Cytochrome P450 2C19 (Homo sapiens, UniProt P33261); experiment: Inhibition of CYP2C19 in human liver microsomes using S-mephenytoin as substrate incubated for 15 to 45 mins in presence of NADPH; assay type: ADME, Microsome
[16] = Acute toxicity in 12 hr fasted female CD-1(ICR) mouse assessed as changes in body weight at 2 g/Kg, IG measured after 14 days; settings: in vivo, po, 2000 mg/kg, 336 h, time 14 day
[17] = Half life in Sprague-Dawley rat at 10 mg/kg, po measured upto 24 hrs by LC-MS/MS analysis; assay type: ADME, organism-based; settings: in vivo
[18] = Cytotoxicity against human MT4 cells assessed as reduction in cell viability incubated for 5 days by MTT assay; assay type: toxicity, cell-based; settings: time 5 day
[19] = target: Human immunodeficiency virus type 1 reverse transcriptase (Human immunodeficiency virus 1, UniProt Q72547); experiment: Inhibition of recombinant wild type HIV-1 reverse transcriptase using DNA/RNA as substrate incubated for 40 mins by Pico-green dye based spectrofluorometric analysis
[20] = Acute toxicity in 12 hr fasted female CD-1(ICR) mouse assessed as pathological damage in liver at 2 g/Kg, IG measured after 14 days by H and E staining based analysis; assay type: tissue-based; settings: in vivo, po, 2000 mg/kg, 336 h, time 14 day
[21] = test system: Human immunodeficiency virus 1; experiment: Antiviral activity against wild type HIV-1 IIIB infected in human MT4 cells assessed as protection against virus-induced cytopathic effect incubated for 5 days by MTT assay; assay type: functional, organism-based; settings: Human immunodeficiency virus 1, IIIB, MT4, 120 h
[22] = Tmax in Sprague-Dawley rat at 1 mg/kg, iv measured upto 24 hrs by LC-MS/MS analysis; assay type: ADME, organism-based; settings: in vivo
[23] = Acute toxicity in 12 hr fasted male CD-1(ICR) mouse assessed as changes in body weight at 2 g/Kg, IG measured after 14 days; settings: in vivo, po, 2000 mg/kg, 336 h, time 14 day
[24] = Resistant factor, ratio of EC50 for antiviral activity against HIV-1 IIIB harboring reverse transcriptase E138K mutant to EC50 for antiviral activity against wild type HIV-1 IIIB; assay type: functional
[25] = AUC (0 to t) in Sprague-Dawley rat at 10 mg/kg, po measured upto 24 hrs by LC-MS/MS analysis; assay type: ADME, organism-based; parameters: dose 10 mg/kg, time < 24 hrs, route po; settings: in vivo
[26] = Acute toxicity in 12 hr fasted male CD-1(ICR) mouse assessed as pathological damage in lung at 2 g/Kg, IG measured after 14 days by H and E staining based analysis; assay type: tissue-based; settings: in vivo, po, 2000 mg/kg, 336 h, time 14 day
[27] = Resistant factor, ratio of EC50 for antiviral activity against HIV-1 IIIB harboring reverse transcriptase K103N mutant to EC50 for antiviral activity against wild type HIV-1 IIIB; assay type: functional
[28] = Acute toxicity in 12 hr fasted female CD-1(ICR) mouse assessed as pathological damage in brain at 2 g/Kg, IG measured after 14 days by H and E staining based analysis; assay type: tissue-based; settings: in vivo, po, 2000 mg/kg, 336 h, time 14 day
[29] = AUC (0 to t) in Sprague-Dawley rat at 1 mg/kg, iv measured upto 24 hrs by LC-MS/MS analysis; assay type: ADME, organism-based; parameters: time < 24 hrs, dose 1 mg/kg, route iv; settings: in vivo
[30] = Cmax in Sprague-Dawley rat at 1 mg/kg, iv measured upto 24 hrs by LC-MS/MS analysis; assay type: ADME, organism-based; parameters: time < 24 hrs, dose 1 mg/kg, route iv; settings: in vivo

Sequence of Cytochrome P450 2C19 (P33261 whole entry): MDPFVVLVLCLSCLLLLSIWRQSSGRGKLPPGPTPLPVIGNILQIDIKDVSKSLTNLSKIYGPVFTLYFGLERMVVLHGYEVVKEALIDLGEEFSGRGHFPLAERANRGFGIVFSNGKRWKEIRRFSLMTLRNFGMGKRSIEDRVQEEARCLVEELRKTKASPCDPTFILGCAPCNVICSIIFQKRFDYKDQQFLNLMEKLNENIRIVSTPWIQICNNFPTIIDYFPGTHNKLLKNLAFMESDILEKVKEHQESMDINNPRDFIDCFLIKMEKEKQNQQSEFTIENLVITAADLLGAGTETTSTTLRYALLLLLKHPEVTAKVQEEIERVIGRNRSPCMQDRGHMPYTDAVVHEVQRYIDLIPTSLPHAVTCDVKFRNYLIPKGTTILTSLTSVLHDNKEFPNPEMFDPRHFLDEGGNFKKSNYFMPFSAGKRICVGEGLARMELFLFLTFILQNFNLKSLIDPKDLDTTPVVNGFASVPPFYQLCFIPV

With CONC(=O)c1cnc(Nc2ccc(C#N)cc2)nc1Oc1c(C)cc(-c2ccc(C#N)cc2)cc1C the Activity [1] was “Non-Toxic”, the bioavailability [2] was 31.2% and the “Ratio EC50” value [3] was 13. It also gave an AUC(0-inf) [4] of 3650 ng·h/mL, an MRT last at 24 h [5] of 3.56 h and an EC50 [6] of 0.029 µM. For the same compound, the MRT inf [7] was 5.21 h, the EC50 [8] was 0.013 µM and the Activity [9] was “Non-Toxic”. The Activity [10] was “Non-Toxic”, the IC50 (Cytochrome P450 1A2) was over 50 µM and the MRT inf [11] was 3.75 h. The AUC(0-inf) [12] was 1170 ng·h/mL, the Activity [13] was “Non-Toxic” and the Tmax [14] was 2 h. The Activity [15] was “Non-Toxic”, the IC50 (Cytochrome P450 2C19) was 23.6 µM and the Activity [16] was “Non-Toxic”. The half-life [17] was 5.18 h, the CC50 at 120 h [18] was over 40.8 µM and the IC50 [19] was 0.047 µM. The Activity [20] was “Non-Toxic”, the EC50 [21] was 0.002 µM and the Tmax [22] was 4.98 min. The Activity [23] was “Non-Toxic”, the “Ratio EC50” value [24] was 2.6 and the AUC(0-t) at 24 h [25] was 3570 ng·h/mL. For the same compound, the Activity [26] was “Non-Toxic”, the “Ratio EC50” value [27] was 3.5 and the Activity [28] was “Non-Toxic”. It also gave an AUC(0-t) at 24 h [29] of 1160 ng·h/mL and a Cmax [30] of 431 ng/mL.
